Patent publication US12673120B2, “Fluorescently-traceable amino acid derivative and preparation methods and use thereof” (priority 2020, dated 2026)

What was measured:
[1] = test system: MCF-7 (human breast cancer cells); assay: In vitro anti-tumor cell proliferation activity (MTT method), MCF-7; format: cell-based; conditions: MCF-7; 48 h; Mean ± SD; read-out: IC50 values of in vitro anti-cell proliferation activity
Protocol: (§2) Tested cell lines S180 (mouse ascites tumor cells), LLC (mouse lung cancer cells), A549 (human non-small cell lung cancer cells), HCT116 (human colon cancer cells), U2Os (human osteosarcoma cells), and MCF-7 (human breast cancer cells) each were purchased from Nanjing KeyGen Biotech.
(§3) When preparing a test sample, the test compound was prepared into a sample solution with a concentration of 500 μM (with a final concentration 100 μM) by a PBS buffer containing 0.5% DMSO, which was used for preliminary screening of an anti-cell proliferation experiment in vitro.
(§4) Positive control group: doxorubicin, prepared to a required concentration with PBS buffer containing 0.5% DMSO; negative control group: a PBS buffer containing 0.5% DMSO; blank group: a PBS buffer containing 0.01% DMSO.

[2] = Nanomorphology characterization and stability (TEM, SEM, hydration particle size, Zeta potential); format: physicochemical
Text: The nanomorphology of compounds ZD-B and ZD-E-1 were studied by TEM and SEM, and hydration particle size and Zeta potential of the two compounds in a solution were studied by a nanometer particle size analyzer. The results were shown in FIG. 1A-H. In FIG. 1A-H, FIG. 1A was a TEM image of the compound ZD-B; FIG. 1B was a TEM image of the compound ZD-E-1; FIG. 1C was a SEM image of the compound ZD-B; FIG. 1D was a SEM image of the compound ZD-E-1; FIG. 1E was a hydration particle size change curve of the compound ZD-B in solutions at different pH values within 72 h (0.5 h, 24 h, 48 h, and 72 h); FIG. 1F was a hydration particle size change curve of the compound ZD-E-1 in solutions at different pH solutions within 72 h; FIG. 1G was a Zeta potential change curve of the compound ZD-B in solutions at different pH values within 72 h; and FIG. 1H was a Zeta potential change curve of the compound ZD-E-1 in solutions at different pH values within 72 h.

[3] = test system: A549 (human non-small cell lung cancer cells); assay: In vitro anti-tumor cell proliferation activity (MTT method), A549; format: cell-based; conditions: A549; 48 h; Mean ± SD; read-out: IC50 values of in vitro anti-cell proliferation activity
Protocol: as §2, §3, §4

[4] = test system: U2Os (human osteosarcoma cells); assay: In vitro anti-tumor cell proliferation activity (MTT method), U2Os; format: cell-based; conditions: U2Os; 48 h; Mean ± SD; read-out: IC50 values of in vitro anti-cell proliferation activity
Protocol: as §2, §3, §4

[5] = test system: HCT116 (human colon cancer cells); assay: In vitro anti-tumor cell proliferation activity (MTT method), HCT116; format: cell-based; conditions: HCT116; 48 h; Mean ± SD; read-out: IC50 values of in vitro anti-cell proliferation activity
Protocol: as §2, §3, §4

[6] = test system: S180 (mouse ascites tumor cells); assay: In vitro anti-tumor cell proliferation activity (MTT method), S180; format: cell-based; conditions: S180; 48 h; Mean ± SD; read-out: IC50 values of in vitro anti-cell proliferation activity
Protocol: as §2, §3, §4

[7] = test system: LLC (mouse lung cancer cells); assay: In vitro anti-tumor cell proliferation activity (MTT method), LLC; format: cell-based; conditions: LLC; 48 h; Mean ± SD; read-out: IC50 values of in vitro anti-cell proliferation activity
Protocol: as §2, §3, §4

[8] = Water solubility; format: physicochemical; conditions: decides the injection route
[9] = test system: mouse S180 sarcoma model; assay: Inhibition of tumor growth in vivo (mouse S180 sarcoma model); parameters: species or system male ICR mice; conditions: for Average tumor weight: Mean ± SD, n 10
Protocol: The mice used in the experiment were male ICR mice of SPF grade, weighing 20 g±2 g, purchased from Beijing Vital River Laboratory Animal Technology Co., Ltd., and raised in an animal barrier of the Experimental Animal Department of Capital Medical University.
(§1) The specific method included: drugs were administered to tumor-forming mice by group for 7 consecutive days, a length of the tumor was measured every other day to calculate a tumor volume. 24 h after the last administration, the mice were weighed, anesthetized with diethyl ether, and eyeballs were removed to collect blood; the obtained whole blood was centrifuged at 1,000 rpm for 10 min, and a serum was absorbed for later use. The mice were sacrificed by neck dislocation, and the tumor mass and various organs were stripped and weighed (it was ensured that the operation was done as soon as possible and the stripping was complete and clean). The tumor inhibition rate was calculated by formula b, the results were shown in Table 2 and FIG. 2; and by calculating a viscera-weight ratio of each organ, and it was analyzed whether the test compound had obvious physiological effects on the mouse organs.

[10] = Viscera-weight ratio / toxicity in tumor-bearing mice; format: in vivo, male ICR mice
Protocol: as §1
After a preliminary study on the in vivo anti-tumor growth activity of different amino acid main compounds, ZD-A, ZD-B, ZD-E-1, and ZD-E-1 with an increased side-chain methylene unit (ZD-F-1) were selected; three dosages of 10 μmol/kg, 5 μmol/kg, and 2 μmol/kg were set to evaluate the inhibitory ability of the four compounds on tumor growth in mice. […] Afterwards, the tumor growth trend and the viscera-weight ratio of the two compounds on mice were analyzed to compare the anti-tumor growth ability and toxicity of the two compounds. The results were shown in FIG. 4 and FIG. 5: after one-way analysis of variance, * meant that compared with the Vehicle group, there was a difference, P<0.05; ** represented a significant difference compared with the Vehicle group, P<0.01.

[11] = Table 2, 10 μmol/kg, ip, 7 consecutive days
[12] = three dosages 10, 5, 2 μmol/kg, iv

For N=C(CCl)NCCC[C@H](Nc1ccc([N+](=O)[O-])c2nonc12)C(=O)NCc1ccccc1 [ZD-E-1, (S)—N-benzyl-5-(2-chloroacetimido)-2-((7-nitro-2,1,3-benzoxadiazol-4-yl)amino)pentaneamide], the IC50 [1] was 40.5 ± 1.91 µM, the “Nanomorphology (shape)” value ([2]; TEM and SEM) was “shape of a ball” and the “Hydration particle size change” value ([2]; pH=2.0, measured continuously for 72 h) was “particle size hardly changed”. For the same compound, the “Hydration particle size change” value ([2]; pH=5.5, measured continuously for 72 h) was “particle size increased and then decreased”, the Hydration particle size ([2]; pH=7.0 versus other pH values, 72 h) was “smallest particle size at pH=7.0” and the Zeta potential change ([2]; solutions at different pH values, measured continuously for 72 h) was “neither ZD-B nor ZD-E-1 had an obvious change”. It also gave an IC50 [3] of 45.5 ± 0.672 µM, an IC50 [4] of 28.8 ± 1.14 µM and an IC50 [5] of 22.6 ± 1.45 µM. For the same compound, the IC50 [6] was 24.6 ± 1.72 µM, the IC50 [7] was 26.1 ± 2.58 µM and the Water solubility [8] was “had no such concerns”. The “Anti-tumor growth activity (in words)” value ([9]; 10 μmol/kg, ip) was “most prominent activities”, the “Average tumor weight compared with Vehicle group (one-way analysis of variance)” value ([9]; 10 μmol/kg, ip) was “significantly different from that of Vehicle group” and the “Tumor growth trend in mice” value ([9]; FIG. 4, ZD-E-1 versus ZD-F-1) was “roughly the same”. For the same compound, the Tumor Inhibition Rate [9, 11] was 40.01%, the Average tumor weight [9, 11] was 1.072 ± 0.386 g and the “Tumor Inhibition Rate” value ([9]; Table 3, 2 μmol/kg, iv) was 39.23%. For the same compound, the Average tumor weight ([9]; Table 3, 2 μmol/kg, iv) was 1.042 ± 0.205 g, the “Tumor Inhibition Rate” value ([9]; Table 3, 5 μmol/kg, iv) was 41.65% and the Average tumor weight ([9]; Table 3, 5 μmol/kg, iv) was 1.001 ± 0.196 g. The “Tumor Inhibition Rate” value ([9]; Table 3, 10 μmol/kg, iv) was 42.73%, the Average tumor weight ([9]; Table 3, 10 μmol/kg, iv) was 0.982 ± 0.300 g and the “Anti-tumor growth activity (in words)” value [9, 12] was “desirable and stable anti-tumor growth activity”. The “Average tumor weight compared with Vehicle group (one-way analysis of variance)” value [9, 12] was “significant differences compared with the Vehicle group”, the “Average tumor weight compared with the YW3-56 group” value [9, 12] was “no difference compared with the YW3-56 group” and the “Effect on liver weight (viscera-weight ratio) compared with Vehicle group” value ([10]; FIG. 5, ZD-E-1 at high dosages (10 μmol/kg and 5 μmol/kg)) was “different from those in the Vehicle group”. The “Effect on brain weight (viscera-weight ratio) compared with Vehicle group” value ([10]; FIG. 5, ZD-E-1 at three dosages) was “different from those in the Vehicle group” and the Toxic side effects ([10]; mice, compared with ZD-F-1) was “more obvious toxic side effects, causing liver failure and brain lesions in mice”.
